# Laboratory results reported in ChEMBL document CHEMBL2417402, “Development and therapeutic implications of selective histone deacetylase 6 inhibitors” (J Med Chem, 2013).
# pIC50: −log10 of the molar value.
# How the values were obtained:
# [1] = biological target: T1, Protein deacetylase HDAC6 (Homo sapiens, UniProt Q9UBN7); assay: Inhibition of human recombinant HDAC6 using Ac-Leu-Gly-(AMC)Lys-Ac as substrate
# T1 sequence (Q9UBN7 whole entry): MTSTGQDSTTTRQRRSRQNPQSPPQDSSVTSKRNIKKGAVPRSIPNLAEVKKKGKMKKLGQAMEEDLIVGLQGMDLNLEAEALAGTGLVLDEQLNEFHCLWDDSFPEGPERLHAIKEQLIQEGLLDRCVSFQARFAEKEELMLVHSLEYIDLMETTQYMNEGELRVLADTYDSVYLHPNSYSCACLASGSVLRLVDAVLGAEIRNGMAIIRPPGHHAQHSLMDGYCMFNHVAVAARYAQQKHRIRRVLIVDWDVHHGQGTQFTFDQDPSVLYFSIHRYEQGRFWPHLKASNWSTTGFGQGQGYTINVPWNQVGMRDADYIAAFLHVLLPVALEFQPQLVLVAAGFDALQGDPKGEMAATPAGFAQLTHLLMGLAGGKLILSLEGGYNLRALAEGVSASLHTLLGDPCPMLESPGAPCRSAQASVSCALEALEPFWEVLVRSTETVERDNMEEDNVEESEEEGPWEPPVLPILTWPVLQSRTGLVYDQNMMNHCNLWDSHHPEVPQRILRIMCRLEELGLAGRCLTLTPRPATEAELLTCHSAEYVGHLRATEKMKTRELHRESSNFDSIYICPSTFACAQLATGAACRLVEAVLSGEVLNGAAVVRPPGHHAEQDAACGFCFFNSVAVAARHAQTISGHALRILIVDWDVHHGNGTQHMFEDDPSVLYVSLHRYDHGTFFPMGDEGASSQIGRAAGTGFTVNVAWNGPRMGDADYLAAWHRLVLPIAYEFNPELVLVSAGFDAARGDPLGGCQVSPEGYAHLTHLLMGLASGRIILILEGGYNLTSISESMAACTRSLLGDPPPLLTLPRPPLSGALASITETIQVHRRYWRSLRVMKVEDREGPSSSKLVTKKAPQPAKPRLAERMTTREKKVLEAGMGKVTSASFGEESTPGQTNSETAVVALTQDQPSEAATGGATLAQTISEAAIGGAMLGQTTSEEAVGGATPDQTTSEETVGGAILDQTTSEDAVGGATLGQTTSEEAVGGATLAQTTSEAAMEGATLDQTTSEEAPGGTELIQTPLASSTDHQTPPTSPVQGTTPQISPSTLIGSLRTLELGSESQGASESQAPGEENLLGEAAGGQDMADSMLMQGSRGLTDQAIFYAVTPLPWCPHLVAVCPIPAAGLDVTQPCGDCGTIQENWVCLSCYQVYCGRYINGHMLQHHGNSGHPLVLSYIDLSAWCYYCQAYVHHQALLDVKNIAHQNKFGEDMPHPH
# Histone deacetylase 1 [2] = biological target: T2, Histone deacetylase 1 (Homo sapiens, UniProt Q13547); assay: Inhibition of human recombinant HDAC1 using Ac-Leu-Gly-(AMC)Lys-Ac as substrate
# Histone deacetylase 2 [3] = biological target: T3, Histone deacetylase 2 (Homo sapiens, UniProt Q92769); assay: Inhibition of His-6-tagged full length HDAC2 (unknown origin) expressed in sf9 cells using carboxyfluorescein (FAM)-labeled acetylated peptide as substrate after 17 hrs by fluorescence-based electrophoretic assay
# [4] = biological target: T1, Protein deacetylase HDAC6; assay: Inhibition of His-6-tagged full length HDAC6 (unknown origin) expressed in sf9 cells using carboxyfluorescein (FAM)-labeled acetylated peptide as substrate after 17 hrs by fluorescence-based electrophoretic assay
# Histone deacetylase 8 [5] = biological target: T4, Histone deacetylase 8 (Homo sapiens, UniProt Q9BY41); assay: Inhibition of His-6-tagged full length HDAC8 (unknown origin) expressed in sf9 cells using carboxyfluorescein (FAM)-labeled acetylated peptide as substrate after 17 hrs by fluorescence-based electrophoretic assay
# T4 sequence (Q9BY41 whole entry): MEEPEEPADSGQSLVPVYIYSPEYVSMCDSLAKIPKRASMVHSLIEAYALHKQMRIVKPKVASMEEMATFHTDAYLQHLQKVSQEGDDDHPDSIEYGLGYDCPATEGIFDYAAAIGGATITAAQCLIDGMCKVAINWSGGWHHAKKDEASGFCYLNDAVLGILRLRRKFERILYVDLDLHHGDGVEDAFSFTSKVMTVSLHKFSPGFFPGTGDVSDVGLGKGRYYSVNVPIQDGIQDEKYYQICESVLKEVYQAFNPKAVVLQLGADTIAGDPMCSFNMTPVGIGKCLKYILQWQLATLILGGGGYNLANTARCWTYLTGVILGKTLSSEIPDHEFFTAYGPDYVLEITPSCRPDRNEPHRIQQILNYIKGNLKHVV
# Histone deacetylase 1 [6] = biological target: T2, Histone deacetylase 1; assay: Inhibition of His-6-tagged full length HDAC1 (unknown origin) expressed in sf9 cells using carboxyfluorescein (FAM)-labeled acetylated peptide as substrate after 17 hrs by fluorescence-based electrophoretic assay
# [7] = biological target: T5, Polyamine deacetylase HDAC10 (Homo sapiens, UniProt Q969S8); assay: Inhibition of C-terminal deleted 38 amino acids (632 to 669) HDAC10 (unknown origin) expressed in sf9 cells using carboxyfluorescein (FAM)-labeled acetylated peptide as substrate after 17 hrs by fluorescence-based electrophoretic assay
# T5 sequence (Q969S8 whole entry): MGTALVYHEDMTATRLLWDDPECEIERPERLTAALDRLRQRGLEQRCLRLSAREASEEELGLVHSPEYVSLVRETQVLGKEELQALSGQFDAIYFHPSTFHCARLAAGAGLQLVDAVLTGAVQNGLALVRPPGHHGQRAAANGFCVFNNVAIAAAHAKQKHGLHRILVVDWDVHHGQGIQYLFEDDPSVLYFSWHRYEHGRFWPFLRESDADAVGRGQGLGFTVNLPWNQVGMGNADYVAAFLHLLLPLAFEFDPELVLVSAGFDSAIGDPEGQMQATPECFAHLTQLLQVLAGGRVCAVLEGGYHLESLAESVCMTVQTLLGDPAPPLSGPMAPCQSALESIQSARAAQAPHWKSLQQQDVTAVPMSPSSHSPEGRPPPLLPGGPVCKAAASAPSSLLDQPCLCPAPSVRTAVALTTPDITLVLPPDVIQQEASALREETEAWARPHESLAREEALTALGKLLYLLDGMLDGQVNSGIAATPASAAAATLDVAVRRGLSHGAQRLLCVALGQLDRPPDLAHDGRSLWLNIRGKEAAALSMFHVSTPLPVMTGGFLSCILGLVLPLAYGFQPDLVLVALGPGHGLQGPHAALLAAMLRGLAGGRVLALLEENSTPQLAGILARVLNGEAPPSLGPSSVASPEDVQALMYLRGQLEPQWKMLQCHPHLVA
# [8] = biological target: T5, Polyamine deacetylase HDAC10; assay: Inhibition of HDAC10 (unknown origin)
# Histone deacetylase 1 [9] = biological target: T2, Histone deacetylase 1; assay: Inhibition of HDAC1 (unknown origin) using carboxyfluorescein (FAM)-labeled acetylated peptide as substrate after 17 hrs by fluorescence-based electrophoretic assay
# Histone deacetylase 2 [10] = biological target: T3, Histone deacetylase 2; assay: Inhibition of HDAC2 (unknown origin) using carboxyfluorescein (FAM)-labeled acetylated peptide as substrate after 17 hrs by fluorescence-based electrophoretic assay
# Histone deacetylase 3 [11] = biological target: T6, Histone deacetylase 3 (Homo sapiens, UniProt O15379); assay: Inhibition of HDAC3 (unknown origin) using carboxyfluorescein (FAM)-labeled acetylated peptide as substrate after 17 hrs by fluorescence-based electrophoretic assay
# Histone deacetylase 5 = Histone deacetylase 5 (Homo sapiens, UniProt Q9UQL6); assay: Inhibition of HDAC5 (unknown origin)
# Histone deacetylase 8 [12] = biological target: T4, Histone deacetylase 8; assay: Inhibition of HDAC8 (unknown origin)
# Histone deacetylase 3 [13] = biological target: T6, Histone deacetylase 3; assay: Inhibition of HDAC3 (unknown origin)
# Histone deacetylase 2 [14] = biological target: T3, Histone deacetylase 2; assay: Inhibition of HDAC2 (unknown origin)
# [15] = biological target: T1, Protein deacetylase HDAC6; assay: Inhibition of HDAC6 (unknown origin)
# Histone deacetylase 7 = biological target: T7, Histone deacetylase 7 (Homo sapiens, UniProt Q8WUI4); assay: Inhibition of HDAC7 (unknown origin)
# T7 sequence (Q8WUI4 whole entry): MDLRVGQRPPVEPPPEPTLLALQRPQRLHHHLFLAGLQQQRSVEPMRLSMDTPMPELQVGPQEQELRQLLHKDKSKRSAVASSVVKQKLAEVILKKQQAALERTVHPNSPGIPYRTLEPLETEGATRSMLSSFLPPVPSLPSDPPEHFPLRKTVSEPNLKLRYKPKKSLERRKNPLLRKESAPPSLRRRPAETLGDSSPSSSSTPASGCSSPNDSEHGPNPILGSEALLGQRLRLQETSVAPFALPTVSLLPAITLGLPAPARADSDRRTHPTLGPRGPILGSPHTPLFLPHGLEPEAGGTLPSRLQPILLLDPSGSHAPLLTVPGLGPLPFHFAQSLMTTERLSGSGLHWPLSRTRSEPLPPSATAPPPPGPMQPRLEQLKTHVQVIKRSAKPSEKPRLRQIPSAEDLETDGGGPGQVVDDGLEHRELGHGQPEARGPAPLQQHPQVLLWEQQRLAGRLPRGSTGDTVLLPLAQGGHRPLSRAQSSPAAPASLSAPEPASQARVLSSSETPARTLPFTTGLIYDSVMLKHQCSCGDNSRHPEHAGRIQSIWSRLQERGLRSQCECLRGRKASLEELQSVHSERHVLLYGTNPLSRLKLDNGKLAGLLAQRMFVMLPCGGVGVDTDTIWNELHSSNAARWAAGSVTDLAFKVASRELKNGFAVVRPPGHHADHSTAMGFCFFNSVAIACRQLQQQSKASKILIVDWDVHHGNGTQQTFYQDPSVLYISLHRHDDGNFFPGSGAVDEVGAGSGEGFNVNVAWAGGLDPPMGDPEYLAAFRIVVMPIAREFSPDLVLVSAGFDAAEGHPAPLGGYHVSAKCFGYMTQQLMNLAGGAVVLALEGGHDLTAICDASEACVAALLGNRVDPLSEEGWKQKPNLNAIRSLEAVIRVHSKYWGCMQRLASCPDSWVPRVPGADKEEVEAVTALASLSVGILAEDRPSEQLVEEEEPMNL
# Histone deacetylase 1 [16] = biological target: T2, Histone deacetylase 1; assay: Inhibition of HDAC1 (unknown origin)
# Histone deacetylase 11 = biological target: T8, Histone deacetylase 11 (Homo sapiens, UniProt Q96DB2); assay: Inhibition of HDAC11 (unknown origin)
# T8 sequence (Q96DB2 whole entry): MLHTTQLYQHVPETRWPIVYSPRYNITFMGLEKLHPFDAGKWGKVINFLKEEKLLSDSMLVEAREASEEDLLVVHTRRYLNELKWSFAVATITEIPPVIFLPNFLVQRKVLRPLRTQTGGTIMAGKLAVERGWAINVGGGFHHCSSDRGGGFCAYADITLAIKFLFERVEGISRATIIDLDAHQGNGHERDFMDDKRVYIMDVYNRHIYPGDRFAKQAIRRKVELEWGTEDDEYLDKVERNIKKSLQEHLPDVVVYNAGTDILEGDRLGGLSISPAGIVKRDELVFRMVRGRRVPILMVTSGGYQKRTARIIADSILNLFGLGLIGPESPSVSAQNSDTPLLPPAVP
# Histone deacetylase 4 = Histone deacetylase 4 (Homo sapiens, UniProt P56524); assay: Inhibition of HDAC4 (unknown origin)
# Sequence of Histone deacetylase 4 (P56524 whole entry): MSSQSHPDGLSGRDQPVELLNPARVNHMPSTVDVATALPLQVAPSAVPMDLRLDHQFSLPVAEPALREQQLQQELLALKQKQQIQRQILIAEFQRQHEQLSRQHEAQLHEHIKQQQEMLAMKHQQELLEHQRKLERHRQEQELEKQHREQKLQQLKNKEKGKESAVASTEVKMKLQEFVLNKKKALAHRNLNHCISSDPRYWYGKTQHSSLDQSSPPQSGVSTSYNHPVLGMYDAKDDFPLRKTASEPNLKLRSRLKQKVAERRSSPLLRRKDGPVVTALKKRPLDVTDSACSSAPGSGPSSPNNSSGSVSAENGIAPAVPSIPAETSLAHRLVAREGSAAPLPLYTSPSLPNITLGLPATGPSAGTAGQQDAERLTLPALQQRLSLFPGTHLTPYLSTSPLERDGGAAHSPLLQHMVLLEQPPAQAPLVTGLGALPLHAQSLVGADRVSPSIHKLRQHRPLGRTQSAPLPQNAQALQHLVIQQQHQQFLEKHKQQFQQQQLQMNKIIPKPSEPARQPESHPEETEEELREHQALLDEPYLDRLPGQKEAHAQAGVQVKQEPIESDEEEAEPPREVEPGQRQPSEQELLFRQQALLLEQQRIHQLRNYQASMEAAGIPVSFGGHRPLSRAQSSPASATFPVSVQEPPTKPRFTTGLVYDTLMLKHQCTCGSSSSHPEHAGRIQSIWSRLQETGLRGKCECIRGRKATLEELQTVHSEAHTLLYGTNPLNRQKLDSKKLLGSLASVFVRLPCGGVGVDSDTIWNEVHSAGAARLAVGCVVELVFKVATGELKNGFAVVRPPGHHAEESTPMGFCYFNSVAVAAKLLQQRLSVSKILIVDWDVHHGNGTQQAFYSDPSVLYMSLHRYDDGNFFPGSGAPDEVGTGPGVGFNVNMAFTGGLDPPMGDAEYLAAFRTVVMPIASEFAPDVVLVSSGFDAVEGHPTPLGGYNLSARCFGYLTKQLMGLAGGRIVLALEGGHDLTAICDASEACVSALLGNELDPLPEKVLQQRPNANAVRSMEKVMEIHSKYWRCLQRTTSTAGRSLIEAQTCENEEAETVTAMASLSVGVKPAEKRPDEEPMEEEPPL
# T3 sequence (Q92769 whole entry): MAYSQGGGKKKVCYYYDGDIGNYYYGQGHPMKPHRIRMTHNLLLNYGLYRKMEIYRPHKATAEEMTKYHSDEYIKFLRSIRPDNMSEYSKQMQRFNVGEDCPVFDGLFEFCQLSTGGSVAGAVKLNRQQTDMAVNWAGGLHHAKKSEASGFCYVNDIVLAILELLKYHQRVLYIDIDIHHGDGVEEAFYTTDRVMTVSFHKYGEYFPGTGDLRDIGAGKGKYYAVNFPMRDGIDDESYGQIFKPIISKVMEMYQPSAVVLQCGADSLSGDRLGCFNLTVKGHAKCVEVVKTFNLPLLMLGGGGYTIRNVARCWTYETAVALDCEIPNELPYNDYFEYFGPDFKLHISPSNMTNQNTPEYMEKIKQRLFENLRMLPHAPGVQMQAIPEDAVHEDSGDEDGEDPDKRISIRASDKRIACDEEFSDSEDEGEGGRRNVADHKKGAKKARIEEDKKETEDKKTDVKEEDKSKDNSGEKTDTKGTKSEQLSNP
# T2 sequence (Q13547 whole entry): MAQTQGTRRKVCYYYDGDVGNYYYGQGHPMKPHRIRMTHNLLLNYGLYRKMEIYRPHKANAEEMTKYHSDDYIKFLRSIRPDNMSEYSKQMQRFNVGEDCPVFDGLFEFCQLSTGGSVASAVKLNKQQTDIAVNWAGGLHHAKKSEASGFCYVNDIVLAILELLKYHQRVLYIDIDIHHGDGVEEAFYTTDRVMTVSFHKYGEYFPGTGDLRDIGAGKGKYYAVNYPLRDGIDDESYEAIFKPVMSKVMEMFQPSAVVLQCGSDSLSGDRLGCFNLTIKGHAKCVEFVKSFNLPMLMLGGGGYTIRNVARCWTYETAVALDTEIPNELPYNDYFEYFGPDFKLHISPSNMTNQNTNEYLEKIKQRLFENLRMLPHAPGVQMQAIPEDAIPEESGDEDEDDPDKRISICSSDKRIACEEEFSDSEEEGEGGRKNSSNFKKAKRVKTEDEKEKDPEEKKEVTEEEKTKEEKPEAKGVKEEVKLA
# Sequence of Histone deacetylase 5 (Q9UQL6 whole entry): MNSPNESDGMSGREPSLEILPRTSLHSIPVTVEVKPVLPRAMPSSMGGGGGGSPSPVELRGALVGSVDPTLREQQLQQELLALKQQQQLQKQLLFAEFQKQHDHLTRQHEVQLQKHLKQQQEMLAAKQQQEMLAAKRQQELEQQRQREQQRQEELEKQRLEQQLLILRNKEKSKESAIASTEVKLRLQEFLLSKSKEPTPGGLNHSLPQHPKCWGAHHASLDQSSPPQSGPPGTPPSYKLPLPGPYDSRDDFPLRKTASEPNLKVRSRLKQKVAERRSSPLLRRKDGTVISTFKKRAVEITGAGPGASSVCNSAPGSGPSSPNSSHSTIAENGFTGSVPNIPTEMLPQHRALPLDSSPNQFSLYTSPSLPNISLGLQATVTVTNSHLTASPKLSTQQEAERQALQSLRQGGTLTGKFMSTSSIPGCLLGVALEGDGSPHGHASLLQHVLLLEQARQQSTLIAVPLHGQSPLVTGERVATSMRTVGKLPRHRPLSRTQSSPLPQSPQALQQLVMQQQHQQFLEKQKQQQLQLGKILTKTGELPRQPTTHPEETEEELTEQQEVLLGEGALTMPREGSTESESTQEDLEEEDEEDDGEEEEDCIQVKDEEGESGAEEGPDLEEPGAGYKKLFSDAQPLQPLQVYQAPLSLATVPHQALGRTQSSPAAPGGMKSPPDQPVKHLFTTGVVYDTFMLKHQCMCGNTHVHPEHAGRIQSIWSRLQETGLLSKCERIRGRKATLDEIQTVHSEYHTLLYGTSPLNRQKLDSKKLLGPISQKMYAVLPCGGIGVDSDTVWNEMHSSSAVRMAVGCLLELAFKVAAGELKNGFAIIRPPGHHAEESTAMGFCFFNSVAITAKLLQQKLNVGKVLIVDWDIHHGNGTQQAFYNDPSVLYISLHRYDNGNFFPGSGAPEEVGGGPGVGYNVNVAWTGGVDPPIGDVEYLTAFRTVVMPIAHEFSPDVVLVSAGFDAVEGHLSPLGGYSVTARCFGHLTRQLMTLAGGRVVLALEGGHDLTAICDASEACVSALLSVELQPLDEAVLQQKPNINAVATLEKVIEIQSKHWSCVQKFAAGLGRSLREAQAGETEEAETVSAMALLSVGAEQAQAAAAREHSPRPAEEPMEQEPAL
# T6 sequence (O15379 whole entry): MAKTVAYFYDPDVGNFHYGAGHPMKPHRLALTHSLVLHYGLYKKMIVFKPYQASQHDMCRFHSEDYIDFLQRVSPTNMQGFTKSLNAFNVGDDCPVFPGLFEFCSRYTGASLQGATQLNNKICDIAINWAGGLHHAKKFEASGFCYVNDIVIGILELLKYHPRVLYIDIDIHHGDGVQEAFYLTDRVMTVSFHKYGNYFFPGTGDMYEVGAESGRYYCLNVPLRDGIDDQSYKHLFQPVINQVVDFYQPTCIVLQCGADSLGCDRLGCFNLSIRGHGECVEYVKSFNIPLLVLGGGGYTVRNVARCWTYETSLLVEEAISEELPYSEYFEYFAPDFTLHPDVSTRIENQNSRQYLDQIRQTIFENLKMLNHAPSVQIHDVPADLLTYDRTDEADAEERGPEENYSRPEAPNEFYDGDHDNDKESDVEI
compound,measurement,setting,value
O=C(NC1=CC(=O)c2ccccc2C1=O)c1ccccc1,pIC50,[1],5.26
same,pIC50,Histone deacetylase 1 [2],< 3.74
O=C(CCCCCCC(=O)Nc1ccc(-c2ccccc2NC(=O)[C@@H]2CCCN2)cc1)NO,pIC50,Histone deacetylase 2 [3],6.71
same,pIC50,[4],7.80
same,pIC50,Histone deacetylase 8 [5],5.58
same,pIC50,Histone deacetylase 1 [6],7.28
same,pIC50,[7],7.15
O=C(CCCCCCNC(=O)c1cnc(N(c2ccccc2)c2ccccc2)nc1)NO [RICOLINOSTAT],pIC50,[8],< 5.00
CC(C)(C)OC(=O)Nc1ccc(-c2cc(C(=O)NCCCCCCC(=O)NO)no2)cc1,pIC50,Histone deacetylase 1 [9],7.90
same,pIC50,Histone deacetylase 2 [10],7.03
same,pIC50,Histone deacetylase 3 [11],6.72
O=C(CCCCCNC(=O)NC12CC3CC(CC(C3)C1)C2)NO,pIC50,Histone deacetylase 5,6.51
same,pIC50,Histone deacetylase 8 [12],5.17
same,pIC50,Histone deacetylase 3 [13],5.81
same,pIC50,[8],6.57
same,pIC50,Histone deacetylase 2 [14],5.59
same,pIC50,[15],7.14
same,pIC50,Histone deacetylase 7,5.89
same,pIC50,Histone deacetylase 1 [16],6.24
same,pIC50,Histone deacetylase 11,6.72
Cc1onc(-c2ccccc2)c1C(=O)NCCCCCNC(=O)CS,pIC50,Histone deacetylase 5,4.82
same,pIC50,Histone deacetylase 2 [14],4.55
same,pIC50,Histone deacetylase 4,5.00
same,pIC50,[15],6.59
same,pIC50,Histone deacetylase 1 [16],5.24
